“And” between values parts separate entries of the source, which are not always exact repeats. Equal entries are not always repeated. Where two headings read alike, the source gives them in different places.
What was measured:
HIV = settings: human T lymphocytes; 50 μg/mL; cited from earlier work
visna = format: cell-based; settings: cell culture
adeno type 2 = format: cell-based; settings: cell culture
parainfluenza type 3 = format: cell-based; settings: cell culture
[1] = in water; for maximum dosage which could be delivered as a single bolus (maximum soluble dosage): 0.01 ml/gram mouse weight
murine leukemia L1210 = assay: in vivo; format: in vivo; settings: for Residual Cell Population After Last Treatment: calculated from inoculum response data; for antitumor activity in vivo: summary, as per Examples 6 and 7 (L1210 and Friend leukemia)
Excerpt: (§1) In Vivo assessments of therapeutic efficacy and host toxicity with murine leukemia L1210 were made as detailed in M. Kuehl; D. I. Brixner; A. D. Broom; T. L. Avery; R. L. Blakley, Cancer Res., 1988, 48, 1481.
(§2) ^b Treatment responses (6 mice/treatment group) presented as % T/C
(§3) ^c Calculations of residual leukemic cell populations were made using
(§4) ^a Except where otherwise indicated, all solutions were delivered ip

in vivo = format: in vivo; settings: mouse, in vivo, ip, read-out: maximum non-lethal dosage
Excerpt: as §1, §2, §3, §4

[2] = system: CCRF-CEM human T lymphoblastic leukemia; assay: In vitro growth inhibition of CCRF-CEM; format: cell-based; settings: in vitro cell culture
Method: (§5) Compounds (4)and (5) were also tested in vitro for their capacity to inhibit the growth of L1210 murine lymphocytic leukemia, WI-L2 human B lymphoblastic leukemia, and CCRF-CEM human T lymphoblastic leukemia in vitro.

Friend leukemia = settings: for Friend leukemia-related splenomegaly diminished: nontoxic dosing; for Spleen Weight / tox (in Spleen Weight column): day 1,3,5,7,9,11, ip; for Spleen Weight: control w/tumor 1538 ± 561, wo/tumor 82 ± 11
viruses = assay: Cell culture antiviral activity (general statement); format: cell-based
[3] = system: herpes simplex type 2 viruses; format: cell-based; settings: cell culture
rhino A = format: cell-based; settings: cell culture
[4] = system: L1210 murine lymphocytic leukemia; assay: In vitro cytotoxicity / growth inhibition of L1210 murine lymphocytic leukemia; format: cell-based; settings: for in vitro growth inhibition: L1210, in vitro cell culture; for cytotoxicity for L1210 cells: cells growing in vitro
[5] = system: WI-L2 human B lymphoblastic leukemia; assay: In vitro growth inhibition of WI-L2; format: cell-based; settings: in vitro cell culture
Method: as §5

influenza A = format: cell-based
semliki forest = format: cell-based; settings: cell culture
[6] = bid, day 1,3,5,7, 480 mg/kg, ip
[7] = qd, day 1-7, 480 mg/kg, ip, 480 mg/kg
[8] = qd, day 1, 480 mg/kg, ip, 480 mg/kg

NC(=O)c1ncn([C@@H]2O[C@H](CO)[C@@H](O)[C@H]2O)n1 [ribavirin, 1-(β-D-ribofuranosyl)-[1,2,4]triazole-3-carboxamide]
inhibition of HIV replication (HIV): inhibits the replication

CCOC(=N)c1ncn([C@@H]2O[C@H](CO)[C@@H](O)[C@H]2O)n1 [Compound (5), Ethyl-1-(β-D-ribofuranosyl)[1,2,4]triazole-3-carboximidate]
antiviral activity (visna): inactive | antiviral activity (adeno type 2): inactive | antiviral activity (parainfluenza type 3): inactive | maximum dosage which could be delivered as a single bolus (maximum soluble dosage) [1]: 3704 mg/kg | dosage/schedule dependence of anti-L1210 activity (murine leukemia L1210; mouse, in vivo): more dosage than schedule dependent | lethal toxicity for L1210-inoculated mice (murine leukemia L1210; mouse, in vivo, 3704 mg/kg): lethally toxic | therapeutic efficacy (murine leukemia L1210; qd day 1, 288 mg/kg): decline of therapeutic efficacy | leukemic cell kill (murine leukemia L1210; qd day 1, 1333 mg/kg, gauged by inoculum response data): 98.7% | T/C (murine leukemia L1210; qd day 1, maximum non-lethal dosage, 1333 mg/kg): 149 | lethal toxicity (murine leukemia L1210; qd days 1-7, compared with qd day 1): lethal toxicity was produced by lower dosages | increase in mean life span (T/C) (murine leukemia L1210; qd days 1-7, maximum non-lethal dosage, 288 mg/kg): 144 | Postinoculation Lifespan (% T/C) (murine leukemia L1210; qd, day 1-7, 288 mg/kg, ip): 144 % T/C | Residual Cell Population After Last Treatment (murine leukemia L1210; qd, day 1-7, 288 mg/kg, ip): 1.7 % of control | Postinoculation Lifespan (% T/C) (murine leukemia L1210; qd, day 1-7, 480 mg/kg, ip): 134 % T/C | Postinoculation Lifespan (% T/C) (murine leukemia L1210; qd, day 1-7, 800 mg/kg, ip): 70 % T/C | Postinoculation Lifespan (% T/C) (murine leukemia L1210; qd, day 1, 288 mg/kg, ip): 114 % T/C | Residual Cell Population After Last Treatment (murine leukemia L1210; qd, day 1, 288 mg/kg, ip): 27.0 % of control | Postinoculation Lifespan (% T/C) (murine leukemia L1210; qd, day 1, 480 mg/kg, ip): 149 % T/C | Residual Cell Population After Last Treatment (murine leukemia L1210; qd, day 1, 480 mg/kg, ip): 1.1 % of control | Postinoculation Lifespan (% T/C) (murine leukemia L1210; qd, day 1, 800 mg/kg, ip, 800 mg/kg): 159 % T/C and 144 % T/C | Postinoculation Lifespan (% T/C) (murine leukemia L1210; qd, day 1, 1333 mg/kg, ip): 149 % T/C | Residual Cell Population After Last Treatment (murine leukemia L1210; qd, day 1, 1333 mg/kg, ip): 1.3 % of control | Postinoculation Lifespan (% T/C) (murine leukemia L1210; qd, day 1, 2222 mg/kg, ip): 92 % T/C | Postinoculation Lifespan (% T/C) (murine leukemia L1210; qd, day 1, 3704 mg/kg, ip): 48 % T/C | antitumor activity in vivo (murine leukemia L1210): significant antitumor activity in vivo | MTD (in vivo; qd day 1): 1330 mg/kg | MTD (in vivo; qd days 1-7): 288 mg/kg | in vitro growth inhibition [2]: neither compound demonstrated in vitro growth inhibition | Friend leukemia-related splenomegaly diminished (Friend leukemia): not | Spleen Weight (Friend leukemia; qd, 480 mg/kg): 1257 ± 185 mg | tox (in Spleen Weight column) (Friend leukemia; qd, 800 mg/kg): tox | tox (in Spleen Weight column) (Friend leukemia; qd, 1333 mg/kg): tox | cell culture antiviral activity (viruses): devoid themselves of cell culture antiviral activity | antiviral activity [3]: inactive | antiviral activity (rhino A): inactive | in vitro growth inhibition [4]: neither compound demonstrated in vitro growth inhibition | cytotoxicity for L1210 cells [4]: neither compound (4) nor compound (5) was cytotoxic | in vitro growth inhibition [5]: neither compound demonstrated in vitro growth inhibition | antiviral activity (influenza A): inactive | antiviral activity (semliki forest): inactive

COC(=N)c1ncn([C@@H]2O[C@H](CO)[C@@H](O)[C@H]2O)n1 [Compound (4), Methyl-1-(β-D-ribofuranosyl)[1,2,4]triazole-3-carboximidate]
antiviral activity (visna): inactive | antiviral activity (adeno type 2): inactive | antiviral activity (parainfluenza type 3): inactive | water solubility relative to biological activity [1]: limited water solubility | maximum dosage which could be delivered as a single bolus (maximum soluble dosage) [1]: 480 mg/kg | Postinoculation Lifespan (% T/C) (murine leukemia L1210; [6]): 162 % T/C | Residual Cell Population After Last Treatment (murine leukemia L1210; [6]): 12 % of control | Postinoculation Lifespan (% T/C) (murine leukemia L1210; bid, day 1-7, 480 mg/kg, ip): 101 % T/C | Postinoculation Lifespan (% T/C) (murine leukemia L1210; bid, day 1, 480 mg/kg, ip): 125 % T/C | Residual Cell Population After Last Treatment (murine leukemia L1210; bid, day 1, 480 mg/kg, ip): 9 % of control | T/C (murine leukemia L1210; qd day 1, maximum soluble dosage, 480 mg/kg, repeated): ≈ 115 | Postinoculation Lifespan (% T/C) (murine leukemia L1210; qd, day 1,3,5,7, 480 mg/kg, ip): 121 % T/C | Residual Cell Population After Last Treatment (murine leukemia L1210; qd, day 1,3,5,7, 480 mg/kg, ip): 46 % of control | Postinoculation Lifespan (% T/C) (murine leukemia L1210; qd, day 1,4,7, 480 mg/kg, ip): 119 % T/C | Residual Cell Population After Last Treatment (murine leukemia L1210; qd, day 1,4,7, 480 mg/kg, ip): 73 % of control | Postinoculation Lifespan (% T/C) (murine leukemia L1210; [7]): 162 % T/C and 142 % T/C | Residual Cell Population After Last Treatment (murine leukemia L1210; [7]): 12 % of control and 7 % of control | Postinoculation Lifespan (% T/C) (murine leukemia L1210; qd, day 1-7, 480 mg/kg, po): 97 % T/C | Residual Cell Population After Last Treatment (murine leukemia L1210; qd, day 1-7, 480 mg/kg, po): 139 % of control | Postinoculation Lifespan (% T/C) (murine leukemia L1210; [8]): 113 % T/C and 114 % T/C and 116 % T/C | Residual Cell Population After Last Treatment (murine leukemia L1210; [8]): 32 % of control and 30 % of control and 21 % of control | lethal toxicity (murine leukemia L1210; qid day 1, 480 mg/kg/injection): lethally toxic | Postinoculation Lifespan (% T/C) (murine leukemia L1210; qid, day 1, 480 mg/kg, ip): 60 % T/C | antitumor activity in vivo (murine leukemia L1210): significant antitumor activity in vivo | T/C (murine leukemia L1210; tid day 1, 480 mg/kg/injection): 153 | leukemic cell kill (murine leukemia L1210; tid day 1, 480 mg/kg/injection): > 99% | Postinoculation Lifespan (% T/C) (murine leukemia L1210; tid, day 1,3,5,7, 480 mg/kg, ip): 76 % T/C | Postinoculation Lifespan (% T/C) (murine leukemia L1210; tid, day 1-7, 480 mg/kg, ip): 61 % T/C | Postinoculation Lifespan (% T/C) (murine leukemia L1210; tid, day 1, 480 mg/kg, ip): 153 % T/C | Residual Cell Population After Last Treatment (murine leukemia L1210; tid, day 1, 480 mg/kg, ip): 0.6 % of control | in vitro growth inhibition [2]: neither compound demonstrated in vitro growth inhibition | Spleen Weight (Friend leukemia; bid, 288 mg/kg, P < 0.005): 150 ± 53 mg | tox (in Spleen Weight column) (Friend leukemia; bid, 480 mg/kg): tox | Friend leukemia-related splenomegaly diminished (Friend leukemia): significantly diminished | Spleen Weight (Friend leukemia; qd, 288 mg/kg, P < 0.02): 599 ± 133 mg | Spleen Weight (Friend leukemia; qd, 480 mg/kg, P < 0.01): 216 ± 60 mg | cell culture antiviral activity (viruses): devoid themselves of cell culture antiviral activity | antiviral activity [3]: inactive | antiviral activity (rhino A): inactive | in vitro growth inhibition [4]: neither compound demonstrated in vitro growth inhibition | cytotoxicity for L1210 cells [4]: neither compound (4) nor compound (5) was cytotoxic | in vitro growth inhibition [5]: neither compound demonstrated in vitro growth inhibition | antiviral activity (influenza A): inactive | antiviral activity (semliki forest): inactive

— patent publication US4925930A, “Synthesis and anti-leukemic activity of alkyl-1-(β-D-ribofuranosyl)[1,2,4]triazole-3-carboximidates” (Nucleic Acid Research Institute, priority 1988, dated 1990)
